Laboratory results: patent US20260070945A1, “MACROCYCLIC IMMUNOMODULATORS” (Bristol-Myers Squibb Company, priority 2022, published 2026)
Where a SMILES comes first, the peptide text is derived from it. Bridges are numbered along the chain shown (N, C = ends). [ ]: non-standard residue; d: D form. The star is where a group is joined. ξ: configuration not given here. Phe(4-COOH) = N[C@@H](Cc1ccc(C(=O)O)cc1)C(=O)O; Bip = N[C@@H](Cc1ccc(-c2ccccc2)cc1)C(=O)O; Phe(3-Me) = Cc1cccc(C[C@H](N)C(=O)O)c1; Cha = N[C@@H](CC1CCCCC1)C(=O)O; Cit = NC(=O)NCCC[C@H](N)C(=O)O; Ile(3ξ) = CCC(C)[C@H](N)C(=O)O; Thr(3ξ) = CC(O)[C@H](N)C(=O)O; Carboxymethyl = O=C(O)C*; NMeA = CN[C@@H](C)C(=O)O; Aun = NCCCCCCCCCCC(=O)O; Dab = NCC[C@H](N)C(=O)O; Dap = NC[C@H](N)C(=O)O; AEEA = NCCOCCOCC(=O)O

Target: T1, PD-1/PD-L1 interaction (PE-labeled human PD-L1-Ig binding to Jurkat cell line over-expressing human PD-1) (Homo sapiens, UniProt Q15116)
T1 construct: expressed in transfected cells; host or cells: Jurkat
Experiment: Jurkat-PD-1 Cell Binding High-Content Screening Assay (CBA)
Conditions: Jurkat-hPD-1 cells, PE-labeled PD-L1-Ig 20 nM final; read-out: Jurkat HPD1 PDL1 IC50
How it was run: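 In this imaging assay, cells in 10% FCS medium see compound for 2 h at 37 °C and then labeled ligand at 20 nM final for 1 h. Paraformaldehyde fixation, Hoechst 33342 staining and dPBS washes precede image capture.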

T1 sequence (Q15116 25-288): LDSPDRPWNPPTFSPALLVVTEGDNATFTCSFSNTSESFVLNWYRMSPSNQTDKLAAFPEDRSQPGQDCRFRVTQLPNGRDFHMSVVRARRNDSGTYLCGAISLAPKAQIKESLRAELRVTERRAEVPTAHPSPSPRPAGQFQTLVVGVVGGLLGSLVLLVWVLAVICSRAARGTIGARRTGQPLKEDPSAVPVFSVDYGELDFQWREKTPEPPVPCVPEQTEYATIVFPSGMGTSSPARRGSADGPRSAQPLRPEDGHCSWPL

SMILES | IC50
Cc1cccc(C[C@@H]2NC(=O)[C@H](CC(=O)O)NC(=O)[C@H](Cc3ccc(C(=O)O)cc3)NC(=O)[C@H](Cc3ccc(OCC(=O)O)cc3)NC(=O)CSC[C@@H](C(=O)N[C@@H](CCN)C(=O)NCCCCCCCCCCC(=O)O)NC(=O)[C@H](C(C)O)NC(=O)[C@H](C(C)C)NC(=O)[C@H](CC3CCCCC3)NC(=O)[C@H](CCN)NC(=O)[C@@H](CC(C)C)NC(=O)[C@H](C)N(C)C(=O)[C@H](C(C)C)NC(=O)[C@H](Cc3ccc(-c4ccccc4)cc3)NC(=O)[C@H](CC(C)C)NC2=O)c1 (stereo partly drawn) [Example 2323] ({CH2CO}-Y(Carboxymethyl)[Phe(4-COOH)]D[Phe(3-Me)]L[Bip]V[NMeA][dL][Dab][Cha]V[Thr(3ξ)]C[Dab][Aun]-OH; thioether N-14) | 25.6 nM
Cc1cccc(C[C@@H]2NC(=O)[C@H](CC(=O)O)NC(=O)[C@H](Cc3ccc(C(=O)O)cc3)NC(=O)[C@H](Cc3ccc(OCC(=O)O)cc3)NC(=O)CSC[C@@H](C(=O)N[C@@H](CCN)C(=O)NCCCCCCCCCCC(=O)O)NC(=O)[C@H](C(C)O)NC(=O)[C@H](C(C)C)NC(=O)[C@H](CC3CCCCC3)NC(=O)[C@H](CCN)NC(=O)[C@@H](CC(C)C)NC(=O)[C@H](C)N(C)C(=O)[C@H](CCCNC(N)=O)NC(=O)[C@H](Cc3ccc(-c4ccccc4)cc3)NC(=O)[C@H](CC(C)C)NC2=O)c1 (stereo partly drawn) [Example 2324] ({CH2CO}-Y(Carboxymethyl)[Phe(4-COOH)]D[Phe(3-Me)]L[Bip][Cit][NMeA][dL][Dab][Cha]V[Thr(3ξ)]C[Dab][Aun]-OH; thioether N-14) | 12.8 nM
Cc1cccc(C[C@@H]2NC(=O)[C@H](CC(=O)O)NC(=O)[C@H](Cc3ccc(C(=O)O)cc3)NC(=O)[C@H](Cc3ccc(OCC(=O)O)cc3)NC(=O)CSC[C@@H](C(=O)NCCOCCOCC(=O)NCCCCCCCCCCC(=O)O)NC(=O)[C@H](C(C)O)NC(=O)[C@H](C(C)C)NC(=O)[C@H](CC3CCCCC3)NC(=O)[C@H](CCN)NC(=O)[C@@H](CC(C)C)NC(=O)[C@H](C)N(C)C(=O)[C@H](C(C)C)NC(=O)[C@H](Cc3ccc(-c4ccccc4)cc3)NC(=O)[C@H](CC(C)C)NC2=O)c1 (stereo partly drawn) [Example 2325] ({CH2CO}-Y(Carboxymethyl)[Phe(4-COOH)]D[Phe(3-Me)]L[Bip]V[NMeA][dL][Dab][Cha]V[Thr(3ξ)]C[AEEA][Aun]-OH; thioether N-14) | 30 nM
Cc1cccc(C[C@@H]2NC(=O)[C@H](CC(=O)O)NC(=O)[C@H](Cc3ccc(C(=O)O)cc3)NC(=O)[C@H](Cc3ccc(OCC(=O)O)cc3)NC(=O)CSC[C@@H](C(=O)N[C@H](CC(N)=O)C(=O)NCCCCCCCCCCC(=O)O)NC(=O)[C@H](C(C)O)NC(=O)[C@H](C(C)C)NC(=O)[C@H](CC3CCCCC3)NC(=O)[C@H](CCN)NC(=O)[C@@H](CC(C)C)NC(=O)[C@H](C)N(C)C(=O)[C@H](C(C)C)NC(=O)[C@H](Cc3ccc(-c4ccccc4)cc3)NC(=O)[C@H](CC(C)C)NC2=O)c1 (stereo partly drawn) [Example 2326] ({CH2CO}-Y(Carboxymethyl)[Phe(4-COOH)]D[Phe(3-Me)]L[Bip]V[NMeA][dL][Dab][Cha]V[Thr(3ξ)]C[dN][Aun]-OH; thioether N-14) | 41.3 nM
Cc1cccc(C[C@@H]2NC(=O)[C@H](CC(=O)O)NC(=O)[C@H](Cc3ccc(C(=O)O)cc3)NC(=O)[C@H](Cc3ccc(OCC(=O)O)cc3)NC(=O)CSC[C@@H](C(=O)N[C@H](CC(N)=O)C(=O)NCCCCCCCCCCC(=O)O)NC(=O)[C@H](C(C)O)NC(=O)[C@H](C(C)C)NC(=O)[C@H](CC3CCCCC3)NC(=O)[C@H](CCN)NC(=O)[C@@H](CC(C)C)NC(=O)[C@H](C)N(C)C(=O)[C@H](CCCNC(N)=O)NC(=O)[C@H](Cc3ccc(-c4ccccc4)cc3)NC(=O)[C@H](CC(C)C)NC2=O)c1 (stereo partly drawn) [Example 2327] ({CH2CO}-Y(Carboxymethyl)[Phe(4-COOH)]D[Phe(3-Me)]L[Bip][Cit][NMeA][dL][Dab][Cha]V[Thr(3ξ)]C[dN][Aun]-OH; thioether N-14) | 13 nM
CCC(C)[C@@H]1NC(=O)[C@H](Cc2ccc(-c3ccccc3)cc2)NC(=O)[C@H](C(C)C)NC(=O)[C@H](Cc2cccc(C)c2)NC(=O)[C@H](CC(=O)O)NC(=O)[C@H](Cc2ccc(OCC(=O)O)cc2)NC(=O)[C@H](C(C)O)NC(=O)CSC[C@@H](C(=O)NCCOCCOCC(=O)NCCCCCCCCCCC(=O)O)NC(=O)[C@H](C(C)O)NC(=O)[C@H](C(C)C)NC(=O)[C@H](CC2CCCCC2)NC(=O)[C@H](CCN)NC(=O)[C@@H](CC(C)C)NC(=O)[C@H](C)N(C)C1=O (stereo partly drawn) [Example 2328] ({CH2CO}-[Thr(3ξ)]Y(Carboxymethyl)D[Phe(3-Me)]V[Bip][Ile(3ξ)][NMeA][dL][Dab][Cha]V[Thr(3ξ)]C[AEEA][Aun]-OH; thioether N-14) | 19.5 nM
Cc1cccc(C[C@@H]2NC(=O)[C@H](CC(=O)O)NC(=O)[C@H](Cc3ccc(C(=O)O)cc3)NC(=O)[C@H](Cc3ccc(OCC(=O)O)cc3)NC(=O)CSC[C@@H](C(=O)NCCCCCCCCCCC(=O)O)NC(=O)[C@H](C(C)O)NC(=O)[C@H](C(C)C)NC(=O)[C@H](CC3CCCCC3)NC(=O)[C@H](CCN)NC(=O)[C@@H](CC(C)C)NC(=O)[C@H](C)N(C)C(=O)[C@H](Cc3ccc(O)cc3)NC(=O)[C@H](Cc3ccc(-c4ccccc4)cc3)NC(=O)[C@H](CC(C)C)NC2=O)c1 (stereo partly drawn) [Example 2329] ({CH2CO}-Y(Carboxymethyl)[Phe(4-COOH)]D[Phe(3-Me)]L[Bip]Y[NMeA][dL][Dab][Cha]V[Thr(3ξ)]C[Aun]-OH; thioether N-14) | 195 nM
Cc1cccc(C[C@@H]2NC(=O)[C@H](CC(=O)O)NC(=O)[C@H](Cc3ccc(C(=O)O)cc3)NC(=O)[C@H](Cc3ccc(OCC(=O)O)cc3)NC(=O)CSC[C@@H](C(=O)NCCCCCCCCCCC(=O)O)NC(=O)[C@H](C(C)O)NC(=O)[C@H](C(C)C)NC(=O)[C@H](CC3CCCCC3)NC(=O)[C@H](CCN)NC(=O)[C@@H](CC(C)C)NC(=O)[C@H](C)N(C)C(=O)[C@H](CCCNC(N)=O)NC(=O)[C@H](Cc3ccc(-c4ccccc4)cc3)NC(=O)[C@H](CC(C)C)NC2=O)c1 (stereo partly drawn) [Example 2330] ({CH2CO}-Y(Carboxymethyl)[Phe(4-COOH)]D[Phe(3-Me)]L[Bip][Cit][NMeA][dL][Dab][Cha]V[Thr(3ξ)]C[Aun]-OH; thioether N-14) | 38.1 nM
Cc1cccc(C[C@@H]2NC(=O)[C@H](CC(=O)O)NC(=O)[C@H](Cc3ccc(C(=O)O)cc3)NC(=O)[C@H](Cc3ccc(OCC(=O)O)cc3)NC(=O)CSC[C@@H](C(=O)NCCCCCCCCCCC(=O)O)NC(=O)[C@H](C(C)O)NC(=O)[C@H](C(C)C)NC(=O)[C@H](CC3CCCCC3)NC(=O)[C@H](CCN)NC(=O)[C@@H](CC(C)C)NC(=O)[C@H](C)N(C)C(=O)[C@H](Cc3ccc(O)cc3)NC(=O)[C@H](Cc3ccc(-c4ccccc4)cc3)NC(=O)[C@H](Cc3ccc(O)cc3)NC2=O)c1 (stereo partly drawn) [Example 2331] ({CH2CO}-Y(Carboxymethyl)[Phe(4-COOH)]D[Phe(3-Me)]Y[Bip]Y[NMeA][dL][Dab][Cha]V[Thr(3ξ)]C[Aun]-OH; thioether N-14) | 160 nM
Cc1cccc(C[C@@H]2NC(=O)[C@H](CC(=O)O)NC(=O)[C@H](Cc3ccc(C(=O)O)cc3)NC(=O)[C@H](Cc3ccc(OCC(=O)O)cc3)NC(=O)CSC[C@@H](C(=O)NCCCCCCCCCCC(=O)O)NC(=O)[C@H](C(C)O)NC(=O)[C@H](C(C)C)NC(=O)[C@H](CC3CCCCC3)NC(=O)[C@H](CCN)NC(=O)[C@@H](CC(C)C)NC(=O)[C@H](C)N(C)C(=O)[C@H](Cc3ccc(C(=O)O)cc3)NC(=O)[C@H](Cc3ccc(-c4ccccc4)cc3)NC(=O)[C@H](CC(C)C)NC2=O)c1 (stereo partly drawn) [Example 2332] ({CH2CO}-Y(Carboxymethyl)[Phe(4-COOH)]D[Phe(3-Me)]L[Bip][Phe(4-COOH)][NMeA][dL][Dab][Cha]V[Thr(3ξ)]C[Aun]-OH; thioether N-14) | 343 nM
Cc1cccc(C[C@@H]2NC(=O)[C@H](CC(=O)O)NC(=O)[C@H](Cc3ccc(OCC(=O)O)cc3)NC(=O)[C@H](Cc3ccc(OCC(=O)O)cc3)NC(=O)CSC[C@@H](C(=O)N[C@@H](CN)C(=O)NCCCCCCCCCCC(=O)O)NC(=O)[C@H](C(C)O)NC(=O)[C@H](C(C)C)NC(=O)[C@H](CC3CCCCC3)NC(=O)[C@H](CCN)NC(=O)[C@@H](CC(C)C)NC(=O)[C@H](C)N(C)C(=O)[C@H](C(C)C)NC(=O)[C@H](Cc3ccc(-c4ccccc4)cc3)NC(=O)[C@H](CC(C)C)NC2=O)c1 (stereo partly drawn) [Example 2333] ({CH2CO}-Y(Carboxymethyl)Y(Carboxymethyl)D[Phe(3-Me)]L[Bip]V[NMeA][dL][Dab][Cha]V[Thr(3ξ)]C[Dap][Aun]-OH; thioether N-14) | 23.5 nM
Cc1cccc(C[C@@H]2NC(=O)[C@H](CC(=O)O)NC(=O)[C@H](Cc3ccc(OCC(=O)O)cc3)NC(=O)[C@H](Cc3ccc(OCC(=O)O)cc3)NC(=O)CSC[C@@H](C(=O)N[C@@H](CN)C(=O)NCCCCCCCCCCC(=O)O)NC(=O)[C@H](C(C)O)NC(=O)[C@H](C(C)C)NC(=O)[C@H](CC3CCCCC3)NC(=O)[C@H](CCN)NC(=O)[C@@H](CC(C)C)NC(=O)[C@H](C)N(C)C(=O)[C@H](CCCNC(N)=O)NC(=O)[C@H](Cc3ccc(-c4ccccc4)cc3)NC(=O)[C@H](CC(C)C)NC2=O)c1 (stereo partly drawn) [Example 2334] ({CH2CO}-Y(Carboxymethyl)Y(Carboxymethyl)D[Phe(3-Me)]L[Bip][Cit][NMeA][dL][Dab][Cha]V[Thr(3ξ)]C[Dap][Aun]-OH; thioether N-14) | 22.8 nM
Cc1cccc(C[C@@H]2NC(=O)[C@H](CC(=O)O)NC(=O)[C@H](Cc3ccc(C(=O)O)cc3)NC(=O)[C@H](Cc3ccc(OCC(=O)O)cc3)NC(=O)CSC[C@@H](C(=O)N[C@@H](CCN)C(=O)NCCCCCCCCCCC(=O)O)NC(=O)[C@H](C(C)O)NC(=O)[C@H](C(C)C)NC(=O)[C@H](CC3CCCCC3)NC(=O)[C@H](CCN)NC(=O)[C@@H](CC(C)C)NC(=O)[C@H](C)N(C)C(=O)[C@H](Cc3ccc(C(=O)O)cc3)NC(=O)[C@H](Cc3ccc(-c4ccccc4)cc3)NC(=O)[C@H](CC(C)C)NC2=O)c1 (stereo partly drawn) [Example 2335] ({CH2CO}-Y(Carboxymethyl)[Phe(4-COOH)]D[Phe(3-Me)]L[Bip][Phe(4-COOH)][NMeA][dL][Dab][Cha]V[Thr(3ξ)]C[Dab][Aun]-OH; thioether N-14) | 47.4 nM
